Assay results taken from PubChem BioAssay (NCI).
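The compound was tested at five concentrations on cells cultured in 96-well plates, with a 48-hour exposure period. TGI denotes the concentration required for complete inhibition of growth.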

Columns and labels:
Experiment in all cases: DTP human tumour cell line panel, 48 h
UACC-62 melanoma = test system: UACC-62 melanoma
HOP-92 NSCLC = test system: HOP-92 NSCLC
SW-620 colon = test system: SW-620 colon
A498 renal = test system: A498 renal
LOX IMVI melanoma = test system: LOX IMVI melanoma
DU-145 prostate = test system: DU-145 prostate
NCI-H460 lung = test system: NCI-H460 lung
K-562 leukemia = test system: K-562 leukemia
MOLT-4 leukemia = test system: MOLT-4 leukemia
OVCAR-5 ovarian = test system: OVCAR-5 ovarian
HOP-62 NSCLC = test system: HOP-62 NSCLC
MDA-MB-435 = test system: MDA-MB-435
M14 melanoma = test system: M14 melanoma
EKVX NSCLC = test system: EKVX NSCLC
NCI-H522 lung = test system: NCI-H522 lung
HS 578T breast = test system: HS 578T breast
SK-MEL-5 melanoma = test system: SK-MEL-5 melanoma
786-0 renal = test system: 786-0 renal
HT29 colon = test system: HT29 colon
CAKI-1 renal = test system: CAKI-1 renal

SMILES: CCOC(=O)c1nc2ccc(C(F)(F)F)cc2nc1Nc1ccc(OC)cc1
- TGI (UACC-62 melanoma): > 100 µM
- TGI (HOP-92 NSCLC): 49.2 µM
- TGI (SW-620 colon): > 100 µM
- TGI (A498 renal): > 100 µM
- TGI (LOX IMVI melanoma): > 100 µM
- TGI (DU-145 prostate): > 100 µM
- TGI (NCI-H460 lung): > 100 µM
- TGI (K-562 leukemia): > 100 µM
- TGI (MOLT-4 leukemia): > 100 µM
- TGI (OVCAR-5 ovarian): > 100 µM
- TGI (HOP-62 NSCLC): 63.5 µM
- TGI (MDA-MB-435): > 100 µM
- TGI (M14 melanoma): > 100 µM
- TGI (EKVX NSCLC): > 100 µM
- TGI (NCI-H522 lung): > 100 µM
- TGI (HS 578T breast): > 100 µM
- TGI (SK-MEL-5 melanoma): > 100 µM
- TGI (786-0 renal): > 100 µM
- TGI (HT29 colon): > 100 µM

SMILES: O=C1Oc2ccccc2C(=O)/C1=C/N1C(=O)CNC1=S
- TGI (UACC-62 melanoma): > 100 µM
- TGI (SW-620 colon): > 100 µM
- TGI (CAKI-1 renal): > 100 µM
- TGI (LOX IMVI melanoma): > 100 µM
- TGI (DU-145 prostate): > 100 µM
- TGI (NCI-H460 lung): > 100 µM
- TGI (K-562 leukemia): > 100 µM
- TGI (MOLT-4 leukemia): > 100 µM
- TGI (OVCAR-5 ovarian): > 100 µM
- TGI (HOP-62 NSCLC): > 100 µM
- TGI (MDA-MB-435): > 100 µM
- TGI (M14 melanoma): > 100 µM
- TGI (EKVX NSCLC): > 100 µM
- TGI (NCI-H522 lung): > 100 µM
- TGI (HS 578T breast): > 100 µM
- TGI (SK-MEL-5 melanoma): > 100 µM
- TGI (786-0 renal): > 100 µM
- TGI (HT29 colon): > 100 µM

SMILES: O=C1OC([C@H](O)c2cccnc2)c2ccccc21 (stereo not given in full)
- TGI (UACC-62 melanoma): > 10 µM
- TGI (HOP-92 NSCLC): > 10 µM
- TGI (SW-620 colon): > 10 µM
- TGI (CAKI-1 renal): > 10 µM
- TGI (LOX IMVI melanoma): > 10 µM
- TGI (DU-145 prostate): > 10 µM
- TGI (NCI-H460 lung): > 10 µM
- TGI (K-562 leukemia): > 10 µM
- TGI (MOLT-4 leukemia): > 10 µM
- TGI (OVCAR-5 ovarian): > 10 µM
- TGI (HOP-62 NSCLC): > 10 µM
- TGI (MDA-MB-435): > 10 µM
- TGI (M14 melanoma): > 10 µM
- TGI (EKVX NSCLC): > 10 µM
- TGI (NCI-H522 lung): > 10 µM
- TGI (HS 578T breast): > 10 µM
- TGI (SK-MEL-5 melanoma): > 10 µM
- TGI (786-0 renal): > 10 µM
- TGI (HT29 colon): > 10 µM

SMILES: COC(=O)C(=O)C(C(=O)C(=O)Nc1ccc(C)cc1C)c1nc2ccc(Cl)cc2[nH]c1=O (stereo not given)
- TGI (UACC-62 melanoma): > 100 µM
- TGI (HOP-92 NSCLC): > 100 µM
- TGI (SW-620 colon): > 100 µM
- TGI (CAKI-1 renal): > 100 µM
- TGI (LOX IMVI melanoma): > 100 µM
- TGI (DU-145 prostate): > 100 µM
- TGI (NCI-H460 lung): > 100 µM
- TGI (MOLT-4 leukemia): > 100 µM
- TGI (OVCAR-5 ovarian): > 100 µM
- TGI (HOP-62 NSCLC): > 100 µM
- TGI (MDA-MB-435): > 100 µM
- TGI (M14 melanoma): > 100 µM
- TGI (EKVX NSCLC): > 100 µM
- TGI (NCI-H522 lung): > 100 µM
- TGI (HS 578T breast): > 100 µM
- TGI (SK-MEL-5 melanoma): > 100 µM
- TGI (786-0 renal): > 100 µM
- TGI (HT29 colon): > 100 µM

SMILES: Cc1cn(C2CC(N=[N+]=[N-])C(COP(=O)(O)OCC3OC(n4cc(F)c(=O)[nH]c4=O)CC3O)O2)c(=O)[nH]c1=O (stereo not given)
- TGI (UACC-62 melanoma): > 100 µM
- TGI (SW-620 colon): > 100 µM
- TGI (CAKI-1 renal): > 100 µM
- TGI (A498 renal): > 100 µM
- TGI (LOX IMVI melanoma): > 100 µM
- TGI (DU-145 prostate): > 100 µM
- TGI (NCI-H460 lung): > 100 µM
- TGI (K-562 leukemia): > 65.7 µM
- TGI (MOLT-4 leukemia): > 37.2 µM
- TGI (OVCAR-5 ovarian): > 100 µM
- TGI (HOP-62 NSCLC): > 100 µM
- TGI (MDA-MB-435): > 100 µM
- TGI (M14 melanoma): > 100 µM
- TGI (EKVX NSCLC): 22.7 µM
- TGI (NCI-H522 lung): > 100 µM
- TGI (HS 578T breast): > 100 µM
- TGI (SK-MEL-5 melanoma): > 100 µM
- TGI (786-0 renal): > 100 µM
- TGI (HT29 colon): > 100 µM

SMILES: CC(=O)N1C(Nc2nccs2)CCN1c1ccccc1 (stereo not given)
- TGI (HOP-92 NSCLC): > 10 µM
- TGI (SW-620 colon): > 10 µM
- TGI (CAKI-1 renal): > 10 µM
- TGI (LOX IMVI melanoma): > 10 µM
- TGI (DU-145 prostate): > 10 µM
- TGI (NCI-H460 lung): > 10 µM
- TGI (K-562 leukemia): > 10 µM
- TGI (MOLT-4 leukemia): > 10 µM
- TGI (OVCAR-5 ovarian): > 10 µM
- TGI (HOP-62 NSCLC): > 10 µM
- TGI (MDA-MB-435): > 10 µM
- TGI (M14 melanoma): > 10 µM
- TGI (EKVX NSCLC): > 10 µM
- TGI (HS 578T breast): > 10 µM
- TGI (SK-MEL-5 melanoma): > 10 µM
- TGI (786-0 renal): > 10 µM
- TGI (HT29 colon): > 10 µM
